According to patent US20210290648A1, “Potentiation of B-Lactam Antibiotics and B-Lactam/B-Lactamase Inhibitor Combinations Against Multidrug and Extensively Drug-Resistant Pseudomonas Aeruginosa Using Non-Ribosomal Tobramycin-Cyclam Conjugates” (University of Manitoba, priority 2018, published 2021):
Read-outs that look alike come from different tables or passages of the source.

Experiments:
WT P. aeruginosa PAO1 = experiment: Checkerboard combination study / MIC; format: cell-based, Pseudomonas aeruginosa; settings: for MIC: Pseudomonas aeruginosa; for FICI in the presence of ≤10 μM of 1: antibiotic + compound 1; for FICI in the presence of ≤10 μM of 1 / MIC of Antibiotics in the presence of ≤10 μM of 1 / FICI in the presence of ≤10 μM of 2 / MIC of Antibiotics in the presence of ≤10 μM of 2 / FICI in the presence of ≤10 μM of 3 / MIC of Antibiotics in the presence of ≤10 μM of 3: WT PAO1; for MIC of Antibiotics in the presence of ≤10 μM of 1: antibiotic + compound 1 ≤10 μM; for FICI in the presence of ≤10 μM of 2: antibiotic + compound 2; for MIC of Antibiotics in the presence of ≤10 μM of 2: antibiotic + compound 2 ≤10 μM; for FICI in the presence of ≤10 μM of 3: antibiotic + compound 3; for MIC of Antibiotics in the presence of ≤10 μM of 3: antibiotic + compound 3 ≤10 μM; for MIC of antibiotic alone in PAO1: PAO1 wild-type (Table 4)
PA 100036 = experiment: Checkerboard combination study / MIC; format: cell-based, Pseudomonas aeruginosa; settings: for MICCombination (antibiotic): MIC of antibiotic combined with compound 2; for FICI: antibiotic + compound 2; for MICAntibiotic: antibiotic alone; for FICAntibiotic: with compound 2
PA 101885 = experiment: Checkerboard combination study / MIC; format: cell-based, Pseudomonas aeruginosa; settings: for MICCombination (antibiotic): MIC of antibiotic combined with compound 2; for FICI: antibiotic + compound 2; for MICAntibiotic: antibiotic alone; for FICAntibiotic: with compound 2
PA 259 = experiment: Checkerboard combination study / MIC; format: cell-based, Pseudomonas aeruginosa; settings: for MICCombination (antibiotic): MIC of antibiotic combined with compound 2; for FICI: antibiotic + compound 2; for MICAntibiotic: antibiotic alone
PA 260 = experiment: Checkerboard combination study / MIC; format: cell-based, Pseudomonas aeruginosa; settings: for MICCombination (antibiotic): MIC of antibiotic combined with compound 2; for FICI: antibiotic + compound 2; for MICAntibiotic: antibiotic alone; for FICAntibiotic: with compound 2
PA 262 = experiment: Checkerboard combination study / MIC; format: cell-based, Pseudomonas aeruginosa; settings: for MICCombination (antibiotic): MIC of antibiotic combined with compound 2; for FICI: antibiotic + compound 2; for MICAntibiotic: antibiotic alone; for FICAntibiotic: with compound 2
PA 264 = experiment: Checkerboard combination study / MIC; format: cell-based, Pseudomonas aeruginosa; settings: for MICCombination (antibiotic): MIC of antibiotic combined with compound 2; for FICI: antibiotic + compound 2; for MICAntibiotic: antibiotic alone; for FICAntibiotic: with compound 2
PA 91433 = experiment: Checkerboard combination study / MIC; format: cell-based, Pseudomonas aeruginosa; settings: PA 91433; for MICCombination (antibiotic): MIC of antibiotic combined with compound 2; for FICI: antibiotic + compound 2; for MICAntibiotic: antibiotic alone; for FICAntibiotic: with compound 2
[1] = system: MDR/XDR P. aeruginosa clinical isolates; experiment: MIC and checkerboard, panel of clinical isolates; format: cell-based, Pseudomonas aeruginosa; settings: antibiotic + compound 2 (8.7 μM); resistant P. aeruginosa isolates
[2] = system: Galleria mellonella larvae; experiment: Galleria mellonella tolerability study; settings: for survival of larvae: 100 mg/kg and 200 mg/kg injected alone, after 48 h
Method: In vitro and in vivo discordances have been observed in antimicrobial chemotherapy, thus, therapeutic efficacy may not necessarily be reliably extrapolated based on in vitro data alone. […] Colistin (100 mg/kg), an antibiotic well known for its toxicity towards eukaryotes, served as a positive control for this experiment while PBS served as negative control. […] Survivability was scored for a total of 4 days.
In vivo larvae-infection model. In vivo synergistic effects were determined using Galleria mellonella infection model, as previously described (20). Briefly, worms were purchased from The Worm Lady® Live Feeder (ON, Canada), stored in their natural habitat at 16° C., and used within 10 days of delivery. The worms (average weight of 250 mg) were used for tolerability and efficacy studies. Tolerability study was performed by injecting 10 μL of antimicrobial agents only at concentrations equivalent to 100 mg/kg or 200 mg/kg. The worms (ten in each group) were incubated at 37° C. and monitored for 96 h. […] Overnight grown culture of respective MDR P. aeruginosa isolate was standardized to 0.5 McFarland standard and diluted in PBS to a final concentration of […]. 10 μL of this solution (5 CFU) was injected into each worm and incubated for 3 h at 37° C. […] Worms treated with 10 μL PBS or high concentrations of test antibiotics served as negative and positive control, respectively. The worms were incubated at 37° C. in Petri dishes lined with filter paper and scored for survivability every 6 h for up to 48 h. This experiment was repeated to give a total of thirty worms (n=30) in each case. Survival data curves were plotted using Kaplan-Meier survival analysis.

[3] = PAO1, 18 h, antibiotic alone, WT PAO1 (Table 2), read-out: MIC alone
[4] = PAO1, time-kill study text and FIG. 7 legend, read-out: MIC against WT PAO1

C[C@@H](O)[C@H]1C(=O)N2C(C(=O)O)=C(S[C@@H]3CN[C@H](C(=O)N(C)C)C3)[C@H](C)[C@H]12 [Meropenem]
MIC of antibiotic + Compound 2 in PAO1 (WT P. aeruginosa PAO1; + compound 2 ≤8.7 μM, PAO1): 0.25 µg/mL
fold change of MIC + Compound 2 in PAO1 (WT P. aeruginosa PAO1; + compound 2 ≤8.7 μM, PAO1): 4
MIC (WT P. aeruginosa PAO1; [3]): 1 µg/mL
MIC (WT P. aeruginosa PAO1; [4]): 1 µg/mL
FICI in the presence of ≤10 μM of 1 (WT P. aeruginosa PAO1): 0.25 (0.25)
MIC of Antibiotics in the presence of ≤10 μM of 1 (WT P. aeruginosa PAO1): 0.25 (0.25) μg/ml
FICI in the presence of ≤10 μM of 2 (WT P. aeruginosa PAO1): 0.26
MIC of Antibiotics in the presence of ≤10 μM of 2 (WT P. aeruginosa PAO1): 0.25 µg/mL
FICI in the presence of ≤10 μM of 3 (WT P. aeruginosa PAO1): 0.50
MIC of Antibiotics in the presence of ≤10 μM of 3 (WT P. aeruginosa PAO1): 0.5 µg/mL
MIC of antibiotic alone in PAO1 (WT P. aeruginosa PAO1; antibiotic alone): 1 µg/mL
MICCombination (antibiotic) (PA 100036): 2 µg/mL
FICI (PA 100036): <0.51
MICAntibiotic (PA 100036): 4 µg/mL
FICAntibiotic (PA 100036): 0.500
MICCombination (antibiotic) (PA 101885): 0.5 µg/mL
FICI (PA 101885): <0.16
MICAntibiotic (PA 101885): 4 µg/mL
FICAntibiotic (PA 101885): 0.125
MICCombination (antibiotic) (PA 259): 256 µg/mL
FICI (PA 259): <0.31
MICAntibiotic (PA 259): 1024 µg/mL
FICAntibiotic (PA 259; with compound 2): 0.250
MICCombination (antibiotic) (PA 260): 1 µg/mL
FICI (PA 260): <0.16
MICAntibiotic (PA 260): 8 µg/mL
FICAntibiotic (PA 260): 0.125
MICCombination (antibiotic) (PA 262): 2 µg/mL
FICI (PA 262): <0.13
MICAntibiotic (PA 262): 32 µg/mL
FICAntibiotic (PA 262): 0.063
MICCombination (antibiotic) (PA 264): 2 µg/mL
FICI (PA 264): <0.05
MICAntibiotic (PA 264): 64 µg/mL
FICAntibiotic (PA 264): 0.0313
MICCombination (antibiotic) (PA 91433): 0.25 µg/mL
FICI (PA 91433): <0.03
MICAntibiotic (PA 91433): 16 µg/mL
FICAntibiotic (PA 91433): 0.016
resistant isolates reaching CLSI clinical breakpoint [1]: eight out of nine
survival of larvae [2]: 100%
dose tolerated by larvae ([2]; Galleria mellonella, in vivo, 96 h): up to 200 mg/kg

CC(C)(O/N=C(\C(=O)N[C@@H]1C(=O)N2C(C(=O)[O-])=C(C[n+]3ccccc3)CS[C@H]12)c1csc(N)n1)C(=O)O [Ceftazidime]
MIC of antibiotic + Compound 2 in PAO1 (WT P. aeruginosa PAO1; + compound 2 ≤8.7 μM, PAO1): 0.5 µg/mL
MIC (WT P. aeruginosa PAO1; PAO1, antibiotic alone, WT PAO1 (Table 2), read-out: MIC alone): 2 µg/mL
FICI in the presence of ≤10 μM of 1 (WT P. aeruginosa PAO1): 0.25
MIC of Antibiotics in the presence of ≤10 μM of 1 (WT P. aeruginosa PAO1): 0.5 µg/mL
FICI in the presence of ≤10 μM of 2 (WT P. aeruginosa PAO1): 0.13
MIC of Antibiotics in the presence of ≤10 μM of 2 (WT P. aeruginosa PAO1): 0.25 µg/mL
FICI in the presence of ≤10 μM of 3 (WT P. aeruginosa PAO1): 0.25
MIC of Antibiotics in the presence of ≤10 μM of 3 (WT P. aeruginosa PAO1): 0.5 µg/mL
MIC of antibiotic alone in PAO1 (WT P. aeruginosa PAO1; antibiotic alone): 4 µg/mL
MICCombination (antibiotic) (PA 100036): 2 µg/mL
FICI (PA 100036): <0.28
MICAntibiotic (PA 100036): 8 µg/mL
FICAntibiotic (PA 100036): 0.250
MICCombination (antibiotic) (PA 101885): 1 µg/mL
FICI (PA 101885): <0.16
MICAntibiotic (PA 101885): 8 µg/mL
MICCombination (antibiotic) (PA 259): 64 µg/mL
FICI (PA 259): <0.19
MICAntibiotic (PA 259): 512 µg/mL
MICCombination (antibiotic) (PA 260): 16 µg/mL
FICI (PA 260): <0.52
MICAntibiotic (PA 260): 32 µg/mL
FICAntibiotic (PA 260): 0.500
MICCombination (antibiotic) (PA 262): 4 µg/mL
FICI (PA 262): <0.31
MICAntibiotic (PA 262): 16 µg/mL
FICAntibiotic (PA 262): 0.250
MICCombination (antibiotic) (PA 264): 32 µg/mL
FICI (PA 264): <0.28
MICAntibiotic (PA 264): 128 µg/mL
FICAntibiotic (PA 264): 0.250
MICCombination (antibiotic) (PA 91433): 512 µg/mL
FICI (PA 91433): <0.50
MICAntibiotic (PA 91433): 1024 µg/mL
FICAntibiotic (PA 91433): 0.500
resistant isolates reaching CLSI clinical breakpoint [1]: three out of six
survival of larvae [2]: 100%

C[C@H]1[C@H](NC(=O)/C(=N\OC(C)(C)C(=O)O)c2csc(N)n2)C(=O)N1S(=O)(=O)O [Aztreonam]
MIC of antibiotic + Compound 2 in PAO1 (WT P. aeruginosa PAO1; + compound 2 ≤8.7 μM, PAO1): 0.25 µg/mL
MIC (WT P. aeruginosa PAO1; [3]): 4 µg/mL
MIC (WT P. aeruginosa PAO1; PAO1, FIG. 7 legend, read-out: MIC against WT PAO1): 0.004 µg/mL
MIC (WT P. aeruginosa PAO1; [4]): 4 µg/mL
FICI in the presence of ≤10 μM of 1 (WT P. aeruginosa PAO1): 0.13
MIC of Antibiotics in the presence of ≤10 μM of 1 (WT P. aeruginosa PAO1): 0.5 µg/mL
FICI in the presence of ≤10 μM of 2 (WT P. aeruginosa PAO1): 0.07
MIC of Antibiotics in the presence of ≤10 μM of 2 (WT P. aeruginosa PAO1): 0.25 µg/mL
FICI in the presence of ≤10 μM of 3 (WT P. aeruginosa PAO1): 0.14
MIC of Antibiotics in the presence of ≤10 μM of 3 (WT P. aeruginosa PAO1): 0.5 µg/mL
MIC of antibiotic alone in PAO1 (WT P. aeruginosa PAO1; antibiotic alone): 4 µg/mL
MICCombination (antibiotic) (PA 100036): 2 µg/mL
FICI (PA 100036): <0.16
MICAntibiotic (PA 100036): 16 µg/mL
MICCombination (antibiotic) (PA 101885): 0.5 µg/mL
FICI (PA 101885): <0.09
MICAntibiotic (PA 101885): 16 µg/mL
FICAntibiotic (PA 101885): 0.031
MICCombination (antibiotic) (PA 259): 4 µg/mL
FICI (PA 259): <0.19
MICAntibiotic (PA 259): 32 µg/mL
MICCombination (antibiotic) (PA 260): 8 µg/mL
FICI (PA 260): <0.19
MICAntibiotic (PA 260): 64 µg/mL
MICCombination (antibiotic) (PA 264): 16 µg/mL
FICI (PA 264): <0.28
MICAntibiotic (PA 264): 64 µg/mL
FICAntibiotic (PA 264): 0.250
MICCombination (antibiotic) (PA 91433): 512 µg/mL
FICI (PA 91433): <1.06
MICAntibiotic (PA 91433): 512 µg/mL
FICAntibiotic (PA 91433): 1.000
resistant isolates reaching CLSI clinical breakpoint [1]: seven out of nine
survival of larvae [2]: 100%
